Reference: patent US6790540B2, “Organic electroluminescent element material and organic electroluminescent element” (Nippon Steel Chemical Co., Ltd., priority 2000, dated 2004)

How the values were obtained:
[1] = Solubility (wt %) of compounds in chloroform and toluene; assay type: physicochemical; design: key: ◯: ∘, completely soluble; Δ, a slight amount remaining insoluble; X, a considerable amount remaining insoluble; conditions: for Solubility, Chloroform 0.1% soln. / Solubility, Toluene 0.1% soln.: 0.1% soln. (wt %); for Solubility, Chloroform 1% soln. / Solubility, Toluene 1% soln.: 1% soln. (wt %); for Solubility, Chloroform 5% soln. / Solubility, Toluene 5% soln.: 5% soln. (wt %); for Solubility, Chloroform 10% soln. / Solubility, Toluene 10% soln.: 10% soln. (wt %)
From the text: The symbols in the table stand for the following: ∘, completely soluble; Δ, a slight amount remaining insoluble; X, a considerable amount remaining insoluble.

[2] = Maximum PL wavelength in chloroform; assay type: physicochemical; conditions: in chloroform (Compound B: 0.1 mM, excitation 350 nm)
Experimental: Next, 5.0 g (0.016 mole) of Compound J, 2.12 g (0.016 mole) of zinc chloride and 4.74 g (0.047 mole) of triethylamine were suspended in 30 ml of ethanol and allowed to react at room temperature. After 3 hours, the separated yellow powder was filtered, washed with ethanol, and purified by column chromatography to give […] (90.0%) of Compound B as yellow crystals. The maximum PL wavelength of Compound B in chloroform was 509 nm (concentration, 0.1 mM; solvent, CHCl3; excitation, 350 nm).

Row | Solubility, Chloroform 0.1% soln. [1] | Solubility, Chloroform 1% soln. [1] | Solubility, Chloroform 5% soln. [1] | Solubility, Chloroform 10% soln. [1] | Solubility, Toluene 0.1% soln. [1] | Solubility, Toluene 1% soln. [1] | Solubility, Toluene 5% soln. [1] | Solubility, Toluene 10% soln. [1] | maximum PL wavelength [2] [nm] | Compound
1 | ◯ | ◯ | ◯ | ◯ | ◯ | ◯ | Δ | X | – | CCCCCCCCS(=O)(=O)[N-]c1ccccc1-c1nc2ccccc2o1.CCCCCCCCS(=O)(=O)[N-]c1ccccc1-c1nc2ccccc2o1.[Zn+2] [Compound 6a, zinc bis-2-(2-(n-octylsulfonamido)phenyl)benzoxazolate]
2 | ◯ | Δ | X | X | X | X | X | X | 510 | CCCCS(=O)(=O)[N-]c1cccc2cccnc12.CCCCS(=O)(=O)[N-]c1cccc2cccnc12.[Zn+2] [Compound N, Zinc bis-8-(n-butylsulfonamido)quinolinate]

Further lines, the compound ahead of its results:

Row | Compound | Solubility, Chloroform 0.1% soln. [1] | Solubility, Chloroform 1% soln. [1] | Solubility, Chloroform 5% soln. [1] | Solubility, Chloroform 10% soln. [1] | Solubility, Toluene 0.1% soln. [1] | Solubility, Toluene 1% soln. [1] | Solubility, Toluene 5% soln. [1] | Solubility, Toluene 10% soln. [1] | maximum PL wavelength [2] [nm]
3 | c1cnc2c([O][Al]([O]c3cccc4cccnc34)[O]c3cccc4cccnc34)cccc2c1 [Alq3, aluminum-8-hydroxyquinoline complex] | Δ | X | X | X | X | X | X | X | –
4 | CCCCCCCCS(=O)(=O)[N-]c1cccc2cccnc12.CCCCCCCCS(=O)(=O)[N-]c1cccc2cccnc12.[Zn+2] [Compound B, zinc bis-8-(n-octylsulfonamido)quinolinate] | – | – | – | – | – | – | – | – | 509
5 | CS(=O)(=O)[N-]c1cccc2cccnc12.CS(=O)(=O)[N-]c1cccc2cccnc12.[Zn+2] [Compound M, Zinc bis-8-(methylsulfonamido)quinolinate] | Δ | X | X | X | X | X | X | X | 505
